Where a name gives a salt, the structure may show the parent alone. Read-outs that look alike come from different tables or passages of the source.
Columns and labels:
human OCT1 = molecular target: T1, human OCT1 (Homo sapiens, UniProt O15245); assay: Oxygen consumption rate (OCR) assay, HEK293 cells transfected with OCT1; details: HEK293 cells stably transfected with human OCT1; MitoXpress Xtra, 2 hours
T1 sequence (O15245 1-554): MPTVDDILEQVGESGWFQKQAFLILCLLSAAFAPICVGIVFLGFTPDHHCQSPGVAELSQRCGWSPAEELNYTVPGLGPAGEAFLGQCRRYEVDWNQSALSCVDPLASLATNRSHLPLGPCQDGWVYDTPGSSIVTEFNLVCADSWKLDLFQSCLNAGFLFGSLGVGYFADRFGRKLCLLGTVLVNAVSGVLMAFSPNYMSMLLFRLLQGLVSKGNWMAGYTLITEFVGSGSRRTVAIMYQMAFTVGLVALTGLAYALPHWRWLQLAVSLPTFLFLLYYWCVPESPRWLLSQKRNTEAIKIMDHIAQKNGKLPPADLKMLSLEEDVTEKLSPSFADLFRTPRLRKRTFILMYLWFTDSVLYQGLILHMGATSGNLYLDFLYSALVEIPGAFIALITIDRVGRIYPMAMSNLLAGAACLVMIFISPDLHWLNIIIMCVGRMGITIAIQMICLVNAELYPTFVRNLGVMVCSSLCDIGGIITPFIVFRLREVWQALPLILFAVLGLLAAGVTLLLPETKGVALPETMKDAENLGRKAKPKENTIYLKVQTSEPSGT
Source text: (§1) Diabetologia 2011, 54 (12): 3101-3110, each incorporated by reference with regard to such testing. The compounds of the present invention are similarly tested in an oxygen consumption rate (OCR) assay to evaluate the functional activity of test compounds in cells.
(§2) In brief, the assay uses HEK293 cells stably transfected with the human OCT1, OCT2, OCT3, PMAT, or MATE1 transporters to determine a compound's relative transporter selectivity and its effect on the rate of oxygen consumption relative to control (Neo) cells. The MitoXpress Xtra oxygen-sensitive fluorophore is used to monitor oxygen consumption rates in the presence and absence of compound treatments. The analogs were tested at eight (8) different concentrations in triplicate to determine a relative IC50 value.
(§3) A summary description of the protocol is as follows:
(§4) HEK293 cells transformed with human organic cation transporters were plated in collagen coated, 96-well black-walled microclear plates (Greiner-Bio 1, #655956) at 60,000 cells per well in growth medium (DMEM (LG), 10% FBS, 400 μg/ml G418). Cells were incubated overnight to allow attachment. The outer columns (1 and 12) are not seeded with cells, as controls. The next day, plating medium was removed and replaced with 150 μL of assay medium (DMEM/F12 (PRF), 5% FBS, antibiotics) containing compound dilutions. A 3-fold serial dilution was prepared in the assay medium and transferred to the empty wells. The outer columns and column 11 received 150 μL of assay medium only. […] Dual read time-resolved fluorescence (BMG FluoStar Galaxy reader) was measured over 2 hours with measurements taken every 2 minutes. […] Background TRF values from A1-D1 were subtracted from all readings. A ratiometric analysis was performed to determine changes in the Lifetime fluorescence signal:Lifetime (μs) [T]=(D2−D1)/ln(W1/W2), where D is delay; W is fluorescence window value at each time point. Lifetime slopes were calculated using each Lifetime measurement over time. IC50 values were determined by plotting lifetime slope values vs. compound concentration.

control (Neo) cells = assay: Oxygen consumption rate (OCR) assay, control (Neo) HEK293 cells; assay type: cell-based; details: Homo sapiens, read-out: Oxygen Consumption Rate (OCR) IC50, Neo
human MATE1 = molecular target: T2, human MATE1 (Homo sapiens, UniProt Q96FL8); assay: Oxygen consumption rate (OCR) assay, HEK293 cells transfected with MATE1
T2 sequence (Q96FL8 1-570): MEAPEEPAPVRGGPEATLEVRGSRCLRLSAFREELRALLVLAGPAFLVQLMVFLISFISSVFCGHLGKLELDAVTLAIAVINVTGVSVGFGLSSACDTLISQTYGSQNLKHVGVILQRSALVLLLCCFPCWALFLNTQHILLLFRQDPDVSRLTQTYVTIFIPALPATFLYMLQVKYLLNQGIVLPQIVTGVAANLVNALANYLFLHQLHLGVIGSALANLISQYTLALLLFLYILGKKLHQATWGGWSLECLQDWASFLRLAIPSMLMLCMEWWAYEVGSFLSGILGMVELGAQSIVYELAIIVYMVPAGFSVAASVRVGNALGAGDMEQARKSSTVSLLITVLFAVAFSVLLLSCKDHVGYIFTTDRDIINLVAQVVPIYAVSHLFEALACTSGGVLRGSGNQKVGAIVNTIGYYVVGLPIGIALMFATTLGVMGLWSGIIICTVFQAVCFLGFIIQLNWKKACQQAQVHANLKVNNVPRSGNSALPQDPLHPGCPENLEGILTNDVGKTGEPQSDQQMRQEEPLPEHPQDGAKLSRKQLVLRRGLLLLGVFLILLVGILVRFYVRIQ

human PMAT = molecular target: T3, human PMAT (Homo sapiens, UniProt Q7RTT9); assay: Oxygen consumption rate (OCR) assay, HEK293 cells transfected with PMAT; assay type: cell-based; details: for inhibition at 10 µM: HEK293 cells with human PMAT
T3 construct: expressed in transfected cells; host or cells: HEK293
T3 sequence (Q7RTT9 1-530): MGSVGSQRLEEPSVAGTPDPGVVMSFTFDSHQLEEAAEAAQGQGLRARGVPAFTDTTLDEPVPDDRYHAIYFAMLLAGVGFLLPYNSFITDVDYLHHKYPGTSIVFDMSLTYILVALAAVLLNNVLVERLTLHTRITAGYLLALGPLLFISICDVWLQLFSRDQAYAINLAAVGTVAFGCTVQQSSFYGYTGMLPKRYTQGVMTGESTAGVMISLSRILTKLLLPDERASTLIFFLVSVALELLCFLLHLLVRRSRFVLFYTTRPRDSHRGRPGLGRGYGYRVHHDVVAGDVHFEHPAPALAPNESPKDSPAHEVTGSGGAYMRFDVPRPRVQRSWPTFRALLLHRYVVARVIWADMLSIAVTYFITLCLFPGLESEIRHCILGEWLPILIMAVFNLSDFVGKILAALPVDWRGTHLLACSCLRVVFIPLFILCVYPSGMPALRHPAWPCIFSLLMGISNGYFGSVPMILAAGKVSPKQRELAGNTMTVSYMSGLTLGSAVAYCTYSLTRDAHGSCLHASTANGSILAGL
Source text: as §1, §2, §3
HEK293 cells transformed with human organic cation transporters were plated in collagen coated, 96-well black-walled microclear plates (Greiner-Bio 1, #655956) at 60,000 cells per well in growth medium (DMEM (LG), 10% FBS, 400 μg/ml G418). Cells were incubated overnight to allow attachment. The outer columns (1 and 12) are not seeded with cells, as controls. The next day, plating medium was removed and replaced with 150 μL of assay medium (DMEM/F12 (PRF), 5% FBS, antibiotics) containing compound dilutions. A 3-fold serial dilution was prepared in the assay medium and transferred to the empty wells. The outer columns and column 11 received 150 μL of assay medium only. 10 μL of MitoXpress Xtra reagent was added to each test well, and 100 μL of pre-warmed mineral oil was overlayed in each well to create a seal. Dual read time-resolved fluorescence (BMG FluoStar Galaxy reader) was measured over 2 hours with measurements taken every 2 minutes. Excitation is 340 nm, Emission is 650 nm. For lifetime analysis, two measurements per well were taken: 1) delay of 30 μs, with a window of 30 μs; and 2) delay of 70 μs with a window of 30 μs. Background TRF values from A1-D1 were subtracted from all readings. A ratiometric analysis was performed to determine changes in the Lifetime fluorescence signal:Lifetime (μs) [T]=(D2−D1)/ln(W1/W2), where D is delay; W is fluorescence window value at each time point. Lifetime slopes were calculated using each Lifetime measurement over time. IC50 values were determined by plotting lifetime slope values vs. compound concentration.

human OCT2 = molecular target: T4, human OCT2 (Homo sapiens, UniProt O15244); assay: Oxygen consumption rate (OCR) assay, HEK293 cells transfected with OCT2; details: HEK293 cells stably transfected with human OCT2; MitoXpress Xtra, 2 hours
T4 sequence (O15244 1-555): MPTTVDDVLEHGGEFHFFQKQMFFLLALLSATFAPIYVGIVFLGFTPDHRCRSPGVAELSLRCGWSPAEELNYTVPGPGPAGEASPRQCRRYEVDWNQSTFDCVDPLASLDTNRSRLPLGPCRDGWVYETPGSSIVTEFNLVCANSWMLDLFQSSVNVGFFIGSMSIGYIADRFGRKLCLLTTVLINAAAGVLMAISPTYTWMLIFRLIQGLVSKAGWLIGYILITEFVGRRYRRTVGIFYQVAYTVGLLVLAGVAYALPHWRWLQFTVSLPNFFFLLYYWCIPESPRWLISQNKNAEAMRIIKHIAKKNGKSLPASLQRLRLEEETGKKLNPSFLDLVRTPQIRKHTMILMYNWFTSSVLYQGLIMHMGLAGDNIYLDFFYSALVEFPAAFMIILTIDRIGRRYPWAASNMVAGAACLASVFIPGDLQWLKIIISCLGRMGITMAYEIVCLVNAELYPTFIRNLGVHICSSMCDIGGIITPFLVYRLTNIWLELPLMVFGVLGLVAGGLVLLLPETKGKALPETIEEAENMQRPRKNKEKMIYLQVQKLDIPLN
Source text: as §1, §2, §3, §4

[1] = T2D patients treated with metformin, retrospective studies; cited from earlier work
[2] = diabetic cancer patients taking metformin during neoadjuvant chemotherapy; versus 8% not receiving metformin, P=0.007; cited from earlier work
[3] = diabetic patients receiving metformin; cited from earlier work
[4] = NASH, dose up to 1 g twice daily (BID); cited from earlier work
[5] = control (Neo) HEK293 cells, MitoXpress Xtra, 2 hours

| SMILES | Oxygen Consumption Rate (OCR) IC50, OCT 1 (human OCT1) | IC50 (control (Neo) cells; HEK293, 2 h) | IC50 (human PMAT) | IC50 (human MATE1) | Oxygen Consumption Rate (OCR) IC50, OCT 2 (human OCT2) | IC50 (control (Neo) cells; [5]) | also measured |
| --- | --- | --- | --- | --- | --- | --- | --- |
| Cc1[nH]c2ccccc2c1CCNC(=N)NC(=N)N [Ex 1, 1-[2-(2-methyl-1H-indol-3-yl)ethyl]imidodicarbonimide diamide] | 1267 µM | > 5000 µM | 3 µM |  |  |  | inhibition at 1000 µM (human MATE1; HEK293, read-out: Oxygen Consumption Rate (OCR), MATE 1, % Inhibition at 1000 μM test concentration): 30% |
| Cl.N=C(N)NC(=N)NCCc1c[nH]c2ccc(F)cc12 [Ex 2, 1-[2-(5-fluoro-1H-indol-3-yl)ethyl]imidodicarbonimide diamide hydrochloride] | >1000 µM | > 1000 µM | 5 µM | > 1000 µM |  |  |  |
| N=C(N)NC(=N)NCCc1c[nH]c2c(F)cccc12 [Ex 3, 1-[2-(7-fluoro-1H-indol-3-yl)ethyl]imidodicarbonimide diamide] |  | 677 µM | 4 µM | 20 µM | 7 µM |  |  |
| N=C(N)NC(=N)NCCc1c[nH]c2cc(F)ccc12 [Ex 11, 1-[2-(6-fluoro-1H-indol-3-yl)ethyl]imidodicarbonimide Diamide Trifluoroacetic Acid Salt] |  | 214 µM | 3 µM | 57 µM | 12 µM |  |  |
| N=C(N)NC(=N)NCCc1c[nH]c2cccc(F)c12 [Ex 26, 1-[2-(4-fluoro-1H-indol-3-yl)ethyl]imidodicarbonimide diamide, trifluoroacetic acid salt] |  | 90 µM | 2 µM |  | 2 µM |  |  |
| N=C(N)NC(=N)NCCc1c[nH]c2cccc(Cl)c12 [Ex 34, 1-[2-(4-chloro-1H-indol-3-yl)ethyl]imidodicarbonimide diamide, trifluoroacetic acid salt] | 3 µM | 184 µM | 2 µM | 19 µM |  |  |  |
| N=C(N)NC(=N)NCCc1c[nH]c2ccc(OC(F)(F)F)cc12 [Ex 57, 1-[2-(5-trifluoromethoxy-1H-indol-3-yl)ethyl]imidodicarbonimide diamide, trifluoroacetic acid salt] |  |  |  | 631 µM |  | 255 µM | inhibition at 10 µM (human PMAT): 6% |
| Cc1cccc2c(CCNC(=N)NC(=N)N)c[nH]c12 [Ex 59, 1-[2-(7-methyl-1H-indol-3-yl)ethyl]imidodicarbonimide diamide, trifluoroacetic acid salt] |  |  |  | 112 µM |  | 1290 µM | inhibition at 10 µM (human PMAT): 47% |
| CN(C)C(=N)NC(=N)N [Metformin] |  |  |  |  |  | > 3000 µM | IC50 (human PMAT; HEK293 cells stably transfected with human PMAT, MitoXpress Xtra, 2 hours, read-out: Oxygen Consumption Rate (OCR) IC50, PMAT): 288 µM; reduced cancer burden than patients on other treatments [1]: ~40%; pathological complete response rate [2]: 24%; decrease in breast cancer compared with those on other therapies [3]: 56%; patients with improvement in liver pathology and ALT [4]: 30% |

From patent publication US12371404B2, “Fused bicyclic alkylene linked imidodicarbonimidic diamides, methods for synthesis, and uses in therapy” (NovaTarg, Inc., priority 2016, dated 2025)
